According to patent US11607426B2, “Method of targeting oncolytic viruses to tumors” (UNIVERSITY OF SOUTH FLORIDA, priority 2016, dated 2023):
Where two headings read alike, the source gives them in different places.

Experiments:
PBMCs = format: cell-based, human
hMSCs = assay: Boyden chamber invasion assay, hMSC migration towards LLC1 cells; conditions: media containing 1MT, 24 hours coculture
Protocol: Migrated MSCs were counted after 24 h.
To test the effect of 1-MT on the migratory capacity of hMSCs the inventors used a Boyden chamber invasion assay with Lewis lung carcinoma (LLC1) cells in the bottom chamber to produce trophic factors. MSCs were seeded on the top of a matrigel layer above a PET membrane with 8.0 μm pores (BD Bioscience) and treated with control MSC media or media containing 1MT. Cells were cocultured for 24 hours before fixation in 4% paraformaldehyde in PBS. Upper matrigel layer was removed by cue tip and migrant cells were visualized and counted by Giemsa staining.

RSV = RSV infection (viral titers) in 1-MT or vitamin K3 treated human MSCs; format: cell-based, respiratory syncytial virus; conditions: human MSCs treated with 1-MT or vitamin K3
IDO = IDO (Homo sapiens, UniProt P14902); format: cell-based; conditions: RSV-infected MSCs treated with 1 mM 1-MT or 10 μM vitamin K3
Chain of IDO (P14902 whole entry): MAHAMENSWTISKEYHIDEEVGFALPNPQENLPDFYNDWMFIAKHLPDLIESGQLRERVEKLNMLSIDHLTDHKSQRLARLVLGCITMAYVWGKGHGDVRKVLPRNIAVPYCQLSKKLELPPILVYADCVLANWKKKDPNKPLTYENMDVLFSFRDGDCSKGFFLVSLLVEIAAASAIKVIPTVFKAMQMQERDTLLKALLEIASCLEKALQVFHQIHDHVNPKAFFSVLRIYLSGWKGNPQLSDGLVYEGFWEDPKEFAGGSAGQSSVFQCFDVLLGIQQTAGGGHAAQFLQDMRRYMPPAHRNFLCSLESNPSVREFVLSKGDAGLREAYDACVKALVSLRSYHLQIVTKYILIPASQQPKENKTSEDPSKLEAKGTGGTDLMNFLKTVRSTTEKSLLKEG

SMILES | effect on inhibition of PBMC proliferation by RSV-infected MSC conditioned medium (CFSE dye dilution) (PBMCs) | migration of hMSC towards LLC1 cells (hMSCs) | RSV infection as determined by viral titers (RSV) | effect on inhibition of PBMC proliferation by RSV-infected MSC conditioned medium (CFSE dye dilution) (PBMCs; 1 mM 1-MT or 10 μM vitamin K3, PHA, 5 days, flow cytometry) | kynurenine levels (IDO)
Cn1cc(C[C@H](N)C(=O)O)c2ccccc21 [1-MT, 1-methyltryptophan] | abolished the negative effect on PBMC proliferation | did not inhibit migration | did not reduce RSV infection | – | –
CC1=CC(=O)c2ccccc2C1=O [vitamin K3] | – | – | did not reduce RSV infection | abolished the negative effect on PBMC proliferation | reduced kynurenine levels
